Data as given in publication PMC9569447 (International Journal of Molecular Sciences, 2022).
“Also recorded” adds a separate entry of the source. Numbered stars: 1 amine (or outer) side, 2 acyl side, 3 side chain; on linkers, the order of the positions; unused ones are H or OH. Bridge positions count the residues as written; N and C are the ends. Square brackets hold non-standard residues; d marks the D form. Side chains are listed from the residue outwards. Peptide text beside a SMILES is read from it. * marks the point of attachment. PEG8 = NCCOCCOCCOCCOCCOCCOCCOCCOCCC(=O)O; Palmitoyl = CCCCCCCCCCCCCCCC(=O)*; hCys = N[C@@H](CCS)C(=O)O; X1 = O=C(CC[*:2])[*:1]

Assays:
[1] = tested on: UCP1; test: Gene expression of UCP1 in IWAT and IBAT (qRT-PCR); type: in vivo, rat
Description: IWAT and IBAT were homogenized using a TissueLyser LT (Qiagen, Hilden, Germany). RNA was extracted from the tissue lysates using the RNeasy Lipid Mini Kit (mfg. # 74804; Qiagen, Hilden, Germany) and reverse transcribed using the high-capacity cDNA kit (mfg. # 4368814; Applied Biosystems, Waltham, MA, USA). qRT-PCR was completed on the mRNA samples using the Applied Biosystems StepOnePlus System (Applied Biosystems, Waltham, MA, USA). All samples were normalized to the cycle threshold value of 18S mRNA. The following TaqMan® probes (Applied Biosystems, Waltham, MA, USA) were used in this study: 18S (cat. # Hs99999901_s1), UCP1 (cat. # Rn00562126_m1), and Cox8b (cat. # Rn00562884_m1). Analysis was completed using the delta CT method.

[2] = biological target: T1, human V2 receptor (Homo sapiens, UniProt P30518); test: In vitro functional assay at V2R (cAMP production, HTRF); type: cell-based; details: result in words
T1 construct: expressed in transfected cells; host or cells: CHO
Description: Evaluation of the agonist activity of ASK2131 at the human V2 receptor expressed in stably transfected CHO cells was conducted by measuring its effects on cAMP production using the HTRF detection method. The cells were suspended in HBSS buffer (Invitrogen, Carlsbad, CA) complemented with 20 mM HEPES (pH 7.4), 0.01% BSA and 500 μM IBMX, then distributed in microplates at a density of […] cells/well and incubated for 30 min at room temperature in the absence (control) or presence of the test compound or the reference agonist.
For stimulated control measurement, separate assay wells contained 1 nM AVP. Following incubation, the cells were lysed, and the fluorescence acceptor (D2-labeled cAMP) and fluorescence donor (anti-cAMP antibody labeled with europium cryptate) were added. After 60 min at room temperature, the fluorescence transfer was measured at λex = 337 nm and λem = 620 and 665 nm using a microplate reader (Envision, Perkin Elmer, Waltham, MA, USA). The cAMP concentration was determined by dividing the signal measured at 665 nm by that measured at 620 nm (ratio).
The results were expressed as a percent of the control response to 1 nM AVP. The standard reference agonist was AVP, which was tested in each experiment at several concentrations to generate a concentration-response curve from which its EC50 value was calculated.

[3] = biological target: T2, human V1a receptor (Homo sapiens, UniProt P37288); test: In vitro functional assay at V1aR (cytosolic Ca2+ mobilization, fluorimetric); type: cell-based; details: agonist activity, result in words
T2 construct: expressed in transfected cells; host or cells: CHO
Description: The cells were suspended in DMEM buffer (Invitrogen, Carlsbad, CA, USA) complemented with 0.1% FCS, then distributed in microplates at a density of 4.5 × 10^4 cells/well. The fluorescent probe (Fluo4 Direct, Invitrogen, Carlsbad, CA, USA) mixed with probenicid in HBSS buffer (Invitrogen, Carlsbad, CA, USA) complemented with 20 mM HEPES (Invitrogen; Carlsbad, CA, USA) (pH 7.4) was then added into each well and equilibrated with the cells for 60 min at 37 °C then 15 min at 22 °C. The assay plates were positioned in a microplate reader (CellLux, PerkinElmer, Waltham, MA, USA) followed by the addition of the test compound ASK2131, reference agonist or HBSS buffer (basal control), and the measurements of changes in fluorescence intensity which varies proportionally to the free cytosolic Ca^2+ ion concentration. For stimulated control measurements, AVP at 1 μM was added in separate assay wells. The results were expressed as a percent of the control response to 1 μM AVP. The standard reference agonist was AVP, which was tested in each experiment at several concentrations to generate a concentration-response curve from which its EC50 value was calculated.

T1 sequence (P30518 whole entry): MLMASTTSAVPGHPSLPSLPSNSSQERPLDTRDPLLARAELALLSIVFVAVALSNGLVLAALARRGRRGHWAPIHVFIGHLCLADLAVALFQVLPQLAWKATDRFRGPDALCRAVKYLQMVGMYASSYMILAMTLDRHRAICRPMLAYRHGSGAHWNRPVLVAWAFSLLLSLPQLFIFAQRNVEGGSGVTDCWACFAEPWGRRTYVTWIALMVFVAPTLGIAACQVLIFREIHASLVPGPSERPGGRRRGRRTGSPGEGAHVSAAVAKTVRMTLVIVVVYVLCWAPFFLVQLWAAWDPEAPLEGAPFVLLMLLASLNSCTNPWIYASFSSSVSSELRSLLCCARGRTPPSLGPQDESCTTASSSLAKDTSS
T2 sequence (P37288 whole entry): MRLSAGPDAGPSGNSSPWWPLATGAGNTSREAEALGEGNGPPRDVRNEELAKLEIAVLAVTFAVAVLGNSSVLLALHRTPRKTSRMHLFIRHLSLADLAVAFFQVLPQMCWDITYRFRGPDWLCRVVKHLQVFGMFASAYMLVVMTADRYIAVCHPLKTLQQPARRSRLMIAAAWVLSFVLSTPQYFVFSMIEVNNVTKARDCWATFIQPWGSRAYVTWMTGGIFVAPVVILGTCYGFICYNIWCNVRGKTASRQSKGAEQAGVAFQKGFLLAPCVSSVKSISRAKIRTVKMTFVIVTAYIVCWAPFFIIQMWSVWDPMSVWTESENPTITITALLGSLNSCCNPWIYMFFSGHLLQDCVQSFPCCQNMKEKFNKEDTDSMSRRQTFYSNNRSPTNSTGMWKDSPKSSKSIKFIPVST

SMILES: CCCCCCCCCCCCCCCC(=O)NCCOCCOCCOCCOCCOCCOCCOCCOCCC(=O)NCCCC[C@H](NC(=O)CNC(=O)[C@@H]1CCSCCC(=O)N[C@@H](Cc2ccc(O)cc2)C(=O)N[C@@H]([C@@H](C)CC)C(=O)N[C@@H](CCC(N)=O)C(=O)N[C@@H](CC(N)=O)C(=O)N1)C(=O)NCC(N)=O [ASK2131] (YIQN[hCys]GK([PEG8-Palmitoyl])G-NH2; linker N-5 via X1)
- gene expression (UCP1, Cox8b) in comparison to the vehicle treated group ([1]; IWAT and IBAT, result in words): none of the examined genes showed a significant response
- UCP1 expression in IBAT, mean rank difference (MRD), ASK2131 relative to OXT treatment ([1]; interscapular brown adipose tissue, qRT-PCR normalized to 18S, p = 0.011): −12.5
- UCP1 expression in IWAT, mean difference (MD), ASK2131 relative to OXT treatment ([1]; qRT-PCR normalized to 18S, 95% CI −4.23 to 0.42, p = 0.014): −2.32
- V2R activation [2]: potent activator of V2R; also recorded: activate V2R
- V1aR activation [3]: did not display V1aR activation; also recorded: Neither molecule, ASK1476 or ASK2131, is active
